Test results taken from US11535597B2, “Photoreactive ligands and uses thereof” (The Scripps Research Institute, priority 2017, dated 2022).
Values belong to the molecule of their own block, whether it stands above or below them.

Columns and labels:
[1] = target: T1, PTGR2 (Homo sapiens, UniProt Q8N8N7); assay: In vitro LCMS-based activity assay for PTGR2 (15-keto-PGE2 reductase activity); assay type: biochemical
Experimental: Aliquots (1 μL) of test compounds dissolved in DMSO were transferred to 1.5 mL eppendorf tubes followed by addition of recombinant human PTGR2 (44 μL, 200 nM final concentration) in freshly prepared reaction buffer (Tris Buffer, 1 mM EDTA, 50 μM TCEP, 300 μM NADPH). The resulting mixture was vortexed and then incubated at 37° C. for 20 min. Next, a 5 μL solution of 15-keto-PGE2 substrate (20 μM final concentration) in reaction buffer was added and the reaction was allowed to proceed for 30 min at 37° C. Reactions were quenched by the addition of 0.5% AcOH in ethyl acetate (800 μL), water (300 μL) and 100 μL of internal standard PGE2-d4 (30 pmol/sample) dissolved in 1:1 methanol/water. Phases were separated by centrifugation and the organic layer was collected and dried under a stream of N2, then stored at −80° C. until analysis. Directly prior to analysis, samples were reconstituted in 100 μL of MeCN:H2O (1:1, v/v) and analyzed by LC/MS/MS. All conditions were performed in triplicate and repeated at least three independent times.
The following MS parameters were used to measure the indicated metabolites by MRM (precursor ion, product ion, collision energy, polarity): PGE2-d4 (355, 275, 18), 13,14-dihydro-15-keto-PGE2 (351, 333, 18) and 15-keto-PGE2 (349, 161, 20). 15-keto-PGE2 and 13,14-dihydro-15-keto-PGE2 levels were quantified by determining peak areas in relation to internal standard PGE2-d4. Non-deuterated 15-keto-PGE2 and 13,14-dihydro-15-keto-PGE2 standards were used to confirm retention time and fragmentation.
All data fitting and statistical analysis performed using GraphPad Prism version 6.00 for Windows, GraphPad Software, La Jolla Calif. USA, www.graphpad.com. Statistical values including the exact n and statistical significance are also reported. Probe binding blockade and PTGR2 inhibition curves are plotted as mean±SD (n=3 or 4 per group) for a representative biological replicate using a variable slope (four parameter) non-linear fit. Gene expression data are presented as mean±SD (n=3 per group). HSC5 metabolite data are shown as mean±SD (n=3 per group). Statistical significance was defined as P<0.05 and determined by 2-tailed Student t tests, or two-way ANOVA with Bonferroni's post-tests.

[2] = target: T1, PTGR2; assay: Gel-based competitor blockade of FFF 8 labeling of recombinantly expressed FLAG-tagged PTGR2 in HEK293T cells; assay type: binding
Experimental: (§1) For gel-based experiments, cells were grown in 6-well plates to ˜90% confluence at the time of treatment. Cells were carefully washed with Dulbecco's phosphate buffered saline (DPBS) and replenished with fresh serum-free media containing indicated FFF probe, and, if applicable, competitors or DMSO vehicle (1 mL). Following incubation at 37° C. for 30 min, cells were directly exposed to 365 nm light for 10 min. For no UV experiments, cells were incubated at 4° C. for 10 min under ambient light. For MS-based experiments, cell labeling was performed in a similar manner as described above. Modifications to this protocol included using isotopically ‘light’ and ‘heavy’ SILAC cells that were grown to near complete confluence prior to treatment in 10 cm plates. […]
(§2) Cells pellets were lysed in cold DPBS (100-500 µL) using a Branson Sonifier probe sonicator (10 pulses, 30% duty cycle, output setting=4). […] Protein concentration was determined using the DC Protein Assay (Bio-Rad) and absorbance read using a Tecan, Infinite F500 plate reader following manufacturer's instructions. […]
(§3) Proteomes from treated cells were diluted to 1 mg/mL. […] Proteins (25 µg total protein loaded per gel lane) were resolved using SDS-PAGE (10% acrylamide) and visualized by in-gel fluorescence on a Hitachi FMBIO-II or a Bio-Rad ChemiDoc™ MP flatbed fluorescence scanner. […]

[3] = target: T1, PTGR2; assay: PPARγ luciferase reporter assay in PTGR2-transfected HEK293T cells (15-keto-PGE2-dependent); assay type: cell-based; details: cells recombinantly expressing PTGR2
Experimental: (§4) HEK293T cells were transiently co-transfected using Polyethylenimine (Sigma) with a UAS-Luciferase reporter and a vector expressing the heterologous GAL4 DNA binding domain (DBD) or a GAL4 DNA binding domain::PPARγ ligand binding domain (LBD) chimeric protein, and full-length PTGR2. 24 hr after transfection, cells were treated either with vehicle (DMSO), 15k-PGE2 (20 μM), or fragment compounds. Rosiglitazone (2 μM), a synthetic PPARγ ligand, was used as control. 16 hr after incubation, cells were lysed in Cell Culture Lysis Reagent (Promega) and luciferase activity measured using the Luciferase Assay System (Promega).

[4] = target: T2, PPARγ (Homo sapiens, UniProt P37231); assay: GAL4-PPARγ luciferase reporter assay with empty control vector in HEK293T cells; assay type: cell-based; details: GAL4-PPARγ luciferase reporter and empty control vector
T2 construct: expressed in transfected cells; host or cells: HEK293T
T2 sequence (P37231 238-503 limits assumed): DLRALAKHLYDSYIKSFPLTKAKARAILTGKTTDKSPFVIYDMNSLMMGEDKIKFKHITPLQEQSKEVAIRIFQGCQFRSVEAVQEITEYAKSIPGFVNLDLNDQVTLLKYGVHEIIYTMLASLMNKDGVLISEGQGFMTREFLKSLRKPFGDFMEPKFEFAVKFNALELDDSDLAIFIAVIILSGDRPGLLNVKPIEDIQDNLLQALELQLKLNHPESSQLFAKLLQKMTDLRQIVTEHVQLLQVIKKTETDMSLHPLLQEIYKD
Experimental: as §4

[5] = target: T1, PTGR2; details: only reported inhibitor of PTGR2; read-out: in vitro IC50 (PTGR2); cited from earlier work
[6] = test system: proteins in HEK293T cells; assay: Gel-based profiling of FFF probe-protein labeling in cells; assay type: binding, human; details: 20 μM, 30 min, UV
Experimental: as §1, §2, §3

T1 sequence (Q8N8N7 whole entry): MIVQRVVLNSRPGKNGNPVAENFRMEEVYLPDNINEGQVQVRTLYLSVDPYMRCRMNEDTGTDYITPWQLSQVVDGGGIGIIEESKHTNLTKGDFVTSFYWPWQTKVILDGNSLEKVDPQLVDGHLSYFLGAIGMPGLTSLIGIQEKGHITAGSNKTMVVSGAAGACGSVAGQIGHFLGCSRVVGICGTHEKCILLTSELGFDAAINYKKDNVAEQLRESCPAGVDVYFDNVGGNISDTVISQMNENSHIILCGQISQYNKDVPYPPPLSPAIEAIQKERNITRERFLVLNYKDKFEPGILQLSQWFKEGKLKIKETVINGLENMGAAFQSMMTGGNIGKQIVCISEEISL

effect on 15-keto-PGE2 reductase (catalytic) activity of recombinant PTGR2 [1]: did not affect
competitor blockade of FFF 8 labeling of recombinant PTGR2 (gel) [2]: did not affect
15-keto-PGE2-dependent PPARγ transcriptional activity [3]: no effect
direct modulation of PPARγ transcriptional activity [4]: Neither 22 nor 23 directly modulated
Structure (SMILES): COc1ccccc1C1CCN(S(=O)(=O)Cc2ccccc2)CC1 [Compound 23, 1-(Benzylsulfonyl)-4-(2-methoxyphenyl)piperidine]

Structure (SMILES): COc1ccc2c(c1)c(CC(=O)O)c(C)n2C(=O)c1ccc(Cl)cc1 [indomethacin]
IC50 [5]: ~200 µM

Structure (SMILES): C#CCCC1(CCC(=O)NC)N=N1 [probe 1, 3-(3-(But-3-yn-1-yl)-3H-diazirin-3-yl)-N-methylpropanamide]
protein labeling in HEK293T cells (in-gel fluorescence) [6]: much less protein labeling
